Key:
Test in all cases: relative viability (nuclei count vs DMSO), 5 days (fraction); higher = more cells survive
ALW-II-49-7 + Pictilisib = compound: Cc1ccc(C(=O)Nc2cccc(C(F)(F)F)c2)cc1Nc1cncc(C(N)=O)c1 [ALW-II-49-7] + CS(=O)(=O)N1CCN(Cc2cc3nc(-c4cccc5[nH]ncc45)nc(N4CCOCC4)c3s2)CC1 [Pictilisib] (partner 1 µM)
Summary of the method: (§1)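 Medians of duplicate plates are given as relative viability. That measure is the nuclei count in treated wells divided by the count in vehicle wells. Counts were taken on 4× images of lung cancer cell lines in 1536-well plates, 5 days after pin-tool dosing the day after seeding with one drug alone or a fixed anchor-drug dose plus five library-drug doses (not always all listed) in √10 steps.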

ALW-II-49-7 + Linsitinib = compound: Cc1ccc(C(=O)Nc2cccc(C(F)(F)F)c2)cc1Nc1cncc(C(N)=O)c1 [ALW-II-49-7] + C[C@]1(O)C[C@@H](c2nc(-c3ccc4ccc(-c5ccccc5)nc4c3)c3c(N)nccn32)C1 [Linsitinib] (partner 1 µM)
Summary of the method: as §1

Dasatinib + Pemetrexed = compound: Cc1nc(Nc2ncc(C(=O)Nc3c(C)cccc3Cl)s2)cc(N2CCN(CCO)CC2)n1 [Dasatinib] + Nc1nc2[nH]cc(CCc3ccc(C(=O)N[C@@H](CCC(=O)O)C(=O)O)cc3)c2c(=O)[nH]1 [Pemetrexed] (partner 0.2 µM)
Summary of the method: as §1

XMD13-2 + AZD7762 = compound: C1CC1C(=O)NC2=NNC3=C2C=CC(=C3)C4=CC(=CC=C4)C(=O)NC5CC5 [XMD13-2] + NC(=O)Nc1cc(-c2cccc(F)c2)sc1C(=O)N[C@H]1CCCNC1 [AZD7762] (partner 0.2 µM)
Summary of the method: as §1

Cell Line | relative viability (ALW-II-49-7 + Pictilisib; first compound 0.08 µM) | relative viability (ALW-II-49-7 + Pictilisib; first compound 0.253 µM) | relative viability (ALW-II-49-7 + Pictilisib; first compound 0.8 µM) | relative viability (ALW-II-49-7 + Pictilisib; first compound 2.53 µM) | relative viability (ALW-II-49-7 + Pictilisib; first compound 8 µM) | relative viability (ALW-II-49-7 + Linsitinib; first compound 0.08 µM) | relative viability (ALW-II-49-7 + Linsitinib; first compound 0.253 µM) | relative viability (ALW-II-49-7 + Linsitinib; first compound 0.8 µM) | relative viability (ALW-II-49-7 + Linsitinib; first compound 2.53 µM) | relative viability (ALW-II-49-7 + Linsitinib; first compound 8 µM) | relative viability (Dasatinib + Pemetrexed; first compound 0.005 µM) | relative viability (Dasatinib + Pemetrexed; first compound 0.01581 µM) | relative viability (Dasatinib + Pemetrexed; first compound 0.05 µM) | relative viability (Dasatinib + Pemetrexed; first compound 0.1581 µM) | relative viability (Dasatinib + Pemetrexed; first compound 0.5 µM) | relative viability (XMD13-2 + AZD7762; first compound 0.05 µM) | relative viability (XMD13-2 + AZD7762; first compound 0.1581 µM) | relative viability (XMD13-2 + AZD7762; first compound 0.5 µM) | relative viability (XMD13-2 + AZD7762; first compound 1.581 µM) | relative viability (XMD13-2 + AZD7762; first compound 5 µM)
NCI-H2023 | 0.244 | 0.206 | 0.251 | 0.221 | 0.217 | 0.653 | 0.579 | 0.697 | 0.679 | 0.645 | 0.204 | 0.238 | 0.195 | 0.175 | 0.191 |  |  |  |  | 
EBC-1 | 0.315 | 0.316 |  | 0.242 | 0.244 | 0.83 | 0.784 | 0.358 | 0.856 | 0.391 |  |  |  |  |  |  |  |  |  | 
NCI-H1666 | 0.639 | 0.578 | 0.406 | 0.477 | 0.501 | 0.81 | 0.794 | 0.81 | 0.842 | 0.781 | 0.871 | 0.848 | 0.88 | 0.73 | 0.633 | 0.849 | 0.89 | 0.927 | 0.81 | 0.807
NCI-H1975 | 0.282 | 0.308 | 0.232 | 0.287 | 0.281 | 1.01 | 1 | 0.892 | 0.863 | 0.956 | 0.284 | 0.286 | 0.297 | 0.239 | 0.201 | 0.857 | 0.869 | 0.735 | 0.664 | 0.799
NCI-H2170 | 0.25 | 0.302 | 0.294 | 0.317 | 0.286 |  |  |  |  |  | 0.255 | 0.257 | 0.243 | 0.221 | 0.206 | 0.957 | 1 | 1 | 0.884 | 0.859
NCI-H1355 | 0.413 | 0.469 | 0.395 | 0.322 | 0.345 | 0.731 | 0.872 | 0.797 | 0.752 | 0.758 | 1.04 | 0.92 | 1.1 | 0.806 | 0.663 | 0.854 | 0.881 | 0.787 | 0.636 | 0.793
NCI-H1648 |  |  |  |  |  |  |  |  |  |  | 0.454 | 0.716 | 0.936 | 0.699 | 0.239 | 0.604 |  | 0.564 | 0.633 | 0.565
A549 | 0.535 | 0.568 | 0.496 | 0.505 | 0.416 | 0.654 | 0.511 | 0.551 | 0.263 | 0.481 |  |  |  |  |  |  |  |  |  | 
SK-MES-1 | 0.331 | 0.48 | 0.367 | 0.365 | 0.397 | 1.03 | 1.14 | 1.13 | 0.952 | 0.901 | 0.985 | 0.879 | 0.709 | 0.314 | 0.224 |  |  |  |  | 
EKVX | 0.42 | 0.475 | 0.438 | 0.398 | 0.499 | 0.972 | 0.91 | 1.05 | 0.699 | 0.815 | 0.384 | 0.376 | 0.335 | 0.371 | 0.152 | 0.888 | 0.689 | 0.54 |  | 0.719
RERF-LC-KJ | 0.599 | 0.557 | 0.608 | 0.542 | 0.624 | 0.884 | 0.898 | 0.873 | 0.905 | 0.888 | 0.53 | 0.466 | 0.405 | 0.471 | 0.457 | 1.07 | 0.874 | 1.22 | 0.922 | 0.956
NCI-H1755 | 0.377 | 0.531 | 0.421 | 0.352 | 0.307 | 1.05 | 1.14 | 1.01 | 0.978 | 0.855 | 0.465 | 0.357 | 0.413 | 0.346 | 0.235 | 0.419 | 0.431 | 0.46 | 0.449 | 0.413
NCI-H661 | 0.377 | 0.345 | 0.348 |  | 0.351 | 0.631 | 0.534 | 0.493 |  | 0.536 | 0.913 | 0.823 | 0.889 | 0.763 | 0.51 |  |  |  |  | 
LOU-NH91 | 0.482 | 0.599 | 0.514 | 0.428 | 0.533 | 0.928 | 0.97 | 0.93 | 0.528 | 0.977 | 0.414 | 0.389 | 0.407 | 0.377 | 0.319 | 0.938 | 0.767 | 0.78 | 0.725 | 0.793
LXF-289 | 0.711 | 0.778 | 0.8 | 0.773 | 0.746 | 0.935 | 0.958 | 1.04 | 1.1 | 1.09 | 0.918 | 0.987 | 1.13 | 0.687 | 0.205 | 1.14 | 1.25 | 1.2 | 1.29 | 1.17
HCC-44 | 0.513 | 0.693 | 0.638 | 0.535 | 0.646 | 0.6 | 0.658 | 0.686 | 0.619 | 0.839 | 0.627 | 0.579 | 0.692 | 0.709 | 0.633 | 0.944 | 0.98 | 0.969 | 1.05 | 1.02
HARA | 0.416 | 0.386 | 0.431 | 0.483 | 0.497 | 0.914 | 0.77 | 0.929 | 0.968 | 1.02 | 0.241 | 0.234 | 0.229 | 0.202 | 0.151 | 0.301 | 0.557 | 0.263 | 0.376 | 0.37
201T | 0.666 | 0.684 | 0.771 | 0.714 | 0.628 | 1.03 | 1.06 | 1.02 | 0.983 | 1 | 0.404 | 0.332 | 0.31 | 0.292 | 0.268 | 0.634 | 0.707 | 0.584 | 0.616 | 0.61
